In patent publication US20260124213A1, “STAPHYLOCOCCUS AUREUS PBP4 INHIBITORS AND METHOD OF USE” (UNIVERSITY OF ROCHESTER, priority 2022, published 2026):

Tests used:
Type in all cases: cell-based, Staphylococcus aureus
[1] = tested on: S. aureus strain CRB; assay: microbe, parasite or virus in culture; settings: CRB
Method: Fractional Inhibitory Concentration Index (FICI). Fractional inhibitory testing was performed in checkerboard format to determine whether putative PBP4 inhibitors potentiated the antimicrobial effects of β-lactams toward S. aureus strains USA300 and CRB, as previously described (Chojacnki, et al. Journal of Antimicrobial Chemotherapy, 2003, 52, 1). To do so, in triplicate 10^5 CFU of each strain (10 μL) was added to individual wells of a microtiter plate containing 90 μL MH media. […] Plates were incubated at 37° C. for 16-20 hour and the lowest concentration of each test agent that inhibited bacterial growth alone or in combination was determined by the naked eye. The fractional inhibitory concentration (FIC) index was calculated using the formula: FIC of A (MIC of drug A in combination/MIC of drug A alone)+FIC B ([…]/MIC of drug B alone). A synergistic interaction was defined as a FICI value of less than 0.5, an additive interaction was defined as a FICI value between 0.5 and 1.0, an indifferent interaction was defined as a FICI value between 1.0 and 4.0, and an antagonistic interaction was defined as a FICI value of more than 4.0.

[2] = tested on: pbp4 expression in CRB; assay: Quantitative reverse transcriptase PCR of pbp4 transcript; settings: 25 μM, 3 hour
Method: (§1) Quantitative Reverse Transcriptase PCR. PBP4 transcript titers of bacterial cells exposed to putative PBP4 inhibitors were measured using real time quantitative PCR (RT-qPCR), as previously described (Chojnacki, et al. Antibiotics, 2021, 10, 369). Briefly, overnight cultures of S. aureus strains USA300, USA300Δpbp4, CRB, and CRBΔpbp4 were grown overnight in MH media, diluted (1:100 dilution) in fresh media and sub-cultured to a final OD600 nm of 0.2 at 37° C. with aeration. […] Cells were washed with PBS buffer, and collected via centrifugation at 1,250×g for 10 minutes. Total bacterial RNA was isolated from cell pellets using Qiagen® RNeasy kits, following the manufacturer's guidelines for prokaryotic RNA isolation (Qiagen®, Germantown, MD). A total of 2 μg RNA was DNase treated and repurified using RNeasy kits.
(§2) To measure pbp4 expression, a total of 400 ng of total bacterial RNA was used as a template for qRT-PCR using pbp4 primers (forward, 5′-[…]-3′; reverse, 5′-[…]-3′) and a total of 4 ng of total bacterial RNA was used as a template for primers specific for 16S rRNA (forward, 5′-[…]-3′; reverse, 5′-[…]-3′). Bacterial RNA was amplified and measured using PerfeCTa® SYBR Green FastMix® and qScript® cDNA SuperMix® kits following the manufacturer's recommendations (QuantaBio®, Beverly, MA). […]

[3] = tested on: pbp4 expression in USA300; assay: as above; settings: 25 μM, 3 hour
Method: as §1, §2

O=C(Nc1ccc2[nH]c(-c3cccs3)nc2c1)c1ccco1 [Compound 1 (7729837)]
Cmpd (putative PBP4 inhibitor) MIC, Alone [1]: 200 µM | Fold-decrease in ceftobiprole resistance in combination [1]: 2 | Cmpd concentration, Combination ([1]; with ceftobiprole): 50 µM | BPR (ceftobiprole) MIC, Combination ([1]; with putative PBP4 inhibitor): 64 µg/mL | pbp4 expression (qRT-PCR) [2]: significantly reduced | pbp4 expression (qRT-PCR) [3]: slightly reduced
